In general, IC50 refers to the concentration needed to halve the response being measured.

27 compounds from US8697709B2, “Fused ring heteroaryl kinase inhibitors” (The Regents of the University of California, priority 2008, dated 2014) can be followed below.

Changes are numbered by the printed parent chain. Like-named read-outs stand apart in the source and are kept apart here.

Common to all, as to type: biochemical
One assay concerns the target T1, T315A Abl (Homo sapiens, UniProt P00519, T315A).
T1 sequence (P00519 242-493 T315A limits assumed): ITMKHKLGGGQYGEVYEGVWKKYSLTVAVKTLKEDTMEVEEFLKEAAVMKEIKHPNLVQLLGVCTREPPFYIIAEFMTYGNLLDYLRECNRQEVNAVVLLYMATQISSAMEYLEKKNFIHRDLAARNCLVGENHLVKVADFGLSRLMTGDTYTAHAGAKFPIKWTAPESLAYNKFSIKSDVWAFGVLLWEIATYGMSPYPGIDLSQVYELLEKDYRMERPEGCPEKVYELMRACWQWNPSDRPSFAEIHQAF
Kind of assay: In vitro kinase assay, T315A Abl. The following applies: Table 1a. As to the method:
(§1) Kinase reactions were initiated by the addition of […] cold ATP supplemented with 5 mCi γ^32P ATP and allowed to proceed at room temperature (RT). At 10 minutes […] of the reactions were spotted onto phosphocellulose sheets (P81, Whatman) and subsequently soaked in wash buffer (1.0% (v/v) phosphoric acid). The sheets were washed five times in buffer, dried, and transferred radioactivity was measured by phosphorimaging using a TyphoonTM scanner (Molecular Dynamics). Radioactive counts were quantified using ImageQuantTM software, and titration data were fit to a sigmoidal dose response to derive IC50 values using the Prism® software package. Dose responses were based on a 12 point inhibitor titration, using 1⁄3 dilutions starting from […]. Experiments were completed 2-4 times to derive mean values.

The target in another assay is T338G Src (Gallus gallus, UniProt P00523, T338G). The assay can be described thus: In vitro kinase assay, T338G Src. As to the method:
as §1

The next assay addresses c-Src (Gallus gallus, UniProt P00523). The assay can be described thus: In vitro kinase assay (32P peptide phosphorylation), WT Src.
The next assay has as its target T2, Abl (Homo sapiens, UniProt P00519).
T2 sequence (P00519 242-493 limits assumed): T1 sequence (P00519 242-493 T315A limits assumed) with A74T
The assay can be described thus: In vitro kinase assay (32P peptide phosphorylation), WT Abl. The following applies: read-out: IC50 WT Abl.

Where [1] appears, read: Table 1a, read-out: IC50 WT Src.
[2] abbreviates: unphosphorylated kinase domain, 100 mM ATP, read-out: IC50 for c-Src.
[3] abbreviates: Table 1b, read-out: IC50 WT Src.

Consider `Cn1nc(Cc2ccc(NC(=O)c3cccc(C(F)(F)F)c3)cc2)c2c(N)ncnc21` [AD7], for which the figures for the half-maximal inhibitory concentration (IC50) at T315A Abl, against T338G Src (Table 1a) and on c-Src (setting [1]) were 1 to 5 µM, above 5 µM and 1 to 5 µM, respectively.
For `Cn1nc(Cc2ccc(NC(=O)Nc3cccc(C(F)(F)F)c3)cc2)c2c(N)ncnc21` [AD8], the IC50 against T315A Abl, on T338G Src (Table 1a) and at c-Src (setting [1]) was 1 to 5 µM throughout.
`Cn1nc(Cc2cccc(NC(=O)c3cccc(C(F)(F)F)c3)c2)c2c(N)ncnc21` [AD15]: the half-maximal inhibitory concentration (IC50) on T315A Abl was below 1 µM; at T338G Src (Table 1a), 1 to 5 µM; on c-Src (setting [1]), above 5 µM.
Regarding `Cn1nc(Cc2cccc(NC(=O)Nc3cccc(C(F)(F)F)c3)c2)c2c(N)ncnc21` [AD16, 1-(3-((4-amino-1-methyl-1H-pyrazolo[3,4-d]pyrimidin-3-yl)methyl)phenyl)-3-(3-(trifluoromethyl)phenyl)urea], the half-maximal inhibitory concentration (IC50) against T315A Abl is 1 to 5 µM; against T338G Src (Table 1a), below 1 µM; on Abl (Table 1a), 1 to 5 µM; on c-Src (setting [1]), 1 to 5 µM; on c-Src (setting [2]), around 6.2 µM.
Consider `CC(C)(C)n1nc(Cc2cccc(NC(=O)c3cccc(C(F)(F)F)c3)c2)c2c(N)ncnc21` [AD25], for which the IC50 against T315A Abl is below 1 µM; at T338G Src (Table 1a) it was below 1 µM; at c-Src (setting [1]), 1 to 5 µM.
As for `CC(C)(C)n1nc(Cc2cccc(NC(=O)Nc3cccc(C(F)(F)F)c3)c2)c2c(N)ncnc21` [AD26, 1-(3-((1-tert-butyl-4-amino-1H-pyrazolo[3,4-d]pyrimidin-3-yl)methyl)phenyl)-3-(3-(trifluoromethyl)phenyl)urea], the IC50 is below 1 µM against T315A Abl; below 1 µM against T338G Src (Table 1a); below 1 µM at Abl (Table 1a); below 1 µM at c-Src (setting [1]); 0.48 µM at c-Src (setting [2]).
For `CC(C)n1nc(Cc2cccc(NC(=O)c3cccc(C(F)(F)F)c3)c2)c2c(N)ncnc21` [AD35], the IC50 at T315A Abl was below 1 µM; against T338G Src (Table 1a), 1 to 5 µM; at c-Src (setting [1]), above 5 µM.
On to `CC(C)n1nc(-c2cccc(NC(=O)c3cccc(C(F)(F)F)c3)c2)c2c(N)ncnc21` [AD52], for which the IC50 against T338G Src (Table 1b) is below 1 µM; at c-Src (setting [3]) it was 1 to 5 µM.
Take `CC(C)n1nc(-c2cccc(NC(=O)Nc3cccc(C(F)(F)F)c3)c2)c2c(N)ncnc21` [AD53]: the concentration for half-maximal inhibition (IC50) at T338G Src (Table 1b) was below 1 µM; on c-Src (setting [3]) it was 1 to 5 µM.
For `CC(C)n1nc(-c2ccc(NC(=O)c3cccc(C(F)(F)F)c3)cc2)c2c(N)ncnc21` [AD56], in that order: below 1 µM and 1 to 5 µM.
Consider `Nc1ncnc2c1c(-c1ccc(NC(=O)Nc3cccc(C(F)(F)F)c3)cc1)nn2CCCO` [AD64, 1-(4-(4-amino-1-(3-hydroxypropyl)-1H-pyrazolo[3,4-d]pyrimidin-3-yl)phenyl)-3-(3-(trifluoromethyl)phenyl)urea], for which the IC50 on Abl (Table 1b) was above 5 µM; on c-Src (setting [3]) it was below 1 µM.
For `Nc1ncnc2c1c(-c1ccc(NC(=O)c3cccc(C(F)(F)F)c3)cc1)nn2CCCO` [AD65, N-(4-(4-amino-1-(3-hydroxypropyl)-1H-pyrazolo[3,4-d]pyrimidin-3-yl)phenyl)-3-(trifluoromethyl)benzamide], in that order: above 5 µM and above 5 µM.
For `Nc1ncnc2c1c(-c1ccc(NC(=O)Nc3cccc(C(F)(F)F)c3)cc1)nn2[C@H]1CCOC1` [AD66, 1-(4-(4-amino-1-((S)-tetrahydrofuran-3-yl)-1H-pyrazolo[3,4-d]pyrimidin-3-yl)phenyl)-3-(3-(trifluoromethyl)phenyl)urea], in that order: below 1 µM and below 1 µM.
For `Nc1ncnc2c1c(-c1ccc(NC(=O)c3cccc(C(F)(F)F)c3)cc1)nn2[C@H]1CCOC1` [AD67, N-(4-(4-amino-1-((S)-tetrahydrofuran-3-yl)-1H-pyrazolo[3,4-d]pyrimidin-3-yl)phenyl)-3-(trifluoromethyl)benzamide], in that order: 1 to 5 µM and below 1 µM.
For the compound `Nc1ncnc2c1c(-c1ccc(NC(=O)c3cccc(C(F)(F)F)c3)cc1)nn2[C@@H]1CCOC1` [AD68, N-(4-(4-amino-1-((R)-tetrahydrofuran-3-yl)-1H-pyrazolo[3,4-d]pyrimidin-3-yl)phenyl)-3-(trifluoromethyl)benzamide], the concentration for half-maximal inhibition (IC50) on Abl (Table 1b) and on c-Src (setting [3]) was above 5 µM each time.
On to `Nc1ncnc2c1c(-c1ccc(NC(=O)Nc3cccc(C(F)(F)F)c3)cc1)nn2[C@@H]1CCOC1` [AD69, 1-(4-(4-amino-1-((R)-tetrahydrofuran-3-yl)-1H-pyrazolo[3,4-d]pyrimidin-3-yl)phenyl)-3-(3-(trifluoromethyl)phenyl)urea], for which the concentration for half-maximal inhibition (IC50) at Abl (Table 1b) was above 5 µM; on c-Src (setting [3]), 1 to 5 µM.
With `Nc1ncnc2c1c(-c1ccc(NC(=O)c3cccc(C(F)(F)F)c3)cc1)nn2[C@H]1CCNC1` [AD70, N-(4-(4-amino-1-((S)-pyrrolidin-3-yl)-1H-pyrazolo[3,4-d]pyrimidin-3-yl)phenyl)-3-(trifluoromethyl)benzamide], the half-maximal inhibitory concentration (IC50) on Abl (Table 1b) and on c-Src (setting [3]) was above 5 µM in each case.
In the case of `Nc1ncnc2c1c(-c1ccc(NC(=O)Nc3cccc(C(F)(F)F)c3)cc1)nn2[C@H]1CCN(C(=O)Nc2cccc(C(F)(F)F)c2)C1` [AD71c, (S)-3-(4-amino-3-(4-(3-(3-(trifluoromethyl)phenyl)ureido)phenyl)-1H-pyrazolo[3,4-d]pyrimidin-1-yl)-N-(3-(trifluoromethyl)phenyl)pyrrolidine-1-carboxamide], the concentration for half-maximal inhibition (IC50) on Abl (Table 1a) is above 5 µM; at c-Src (setting [1]) it was 1 to 5 µM.
Turning to `Nc1ncnc2c1c(-c1ccc(NC(=O)c3cccc(C(F)(F)F)c3)cc1)nn2[C@@H]1CCNC1` [AD72, N-(4-(4-amino-1-((R)-pyrrolidin-3-yl)-1H-pyrazolo[3,4-d]pyrimidin-3-yl)phenyl)-3-(trifluoromethyl)benzamide], the IC50 at Abl (Table 1b) and at c-Src (setting [3]) was above 5 µM in each case.
Consider `Nc1ncnc2c1c(-c1ccc(NC(=O)Nc3cccc(C(F)(F)F)c3)cc1)nn2[C@@H]1CCN(C(=O)Nc2cccc(C(F)(F)F)c2)C1` [AD73c, (R)-3-(4-amino-3-(4-(3-(3-(trifluoromethyl)phenyl)ureido)phenyl)-1H-pyrazolo[3,4-d]pyrimidin-1-yl)-N-(3-(trifluoromethyl)phenyl)pyrrolidine-1-carboxamide], for which the results for the half-inhibitory concentration (IC50) at Abl (Table 1a) and at c-Src (setting [1]) were above 5 µM and 1 to 5 µM, respectively.
For `CC(C)(C)OC(=O)N1CC[C@H](n2nc(-c3ccc(NC(=O)Nc4cccc(C(F)(F)F)c4)cc3)c3c(N)ncnc32)C1` [AD78, (S)-tert-butyl 3-(4-amino-3-(4-(3-(3-(trifluoromethyl)phenyl)ureido)phenyl)-1H-pyrazolo[3,4-d]pyrimidin-1-yl)pyrrolidine-1-carboxylate], in that order: 1 to 5 µM and below 1 µM.
For `CC(C)(C)OC(=O)N1CC[C@@H](n2nc(-c3ccc(NC(=O)Nc4cccc(C(F)(F)F)c4)cc3)c3c(N)ncnc32)C1` [AD79, (R)-tert-butyl 3-(4-amino-3-(4-(3-(3-(trifluoromethyl)phenyl)ureido)phenyl)-1H-pyrazolo[3,4-d]pyrimidin-1-yl)pyrrolidine-1-carboxylate], in that order: 1 to 5 µM and below 1 µM.
For the compound `Nc1ncnc2c1c(Cc1cccc(NC(=O)c3cccc(C(F)(F)F)c3)c1)nn2Cc1ccccc1` [BB5, N-(3-((4-amino-1-benzyl-1H-pyrazolo[3,4-d]pyrimidin-3-yl)methyl)phenyl)-3-(trifluoromethyl)benzamide], the IC50 against T315A Abl, against T338G Src (Table 1a) and at c-Src (setting [1]) was 1 to 5 µM each time.
Take `Nc1ncnc2c1c(Cc1cccc(NC(=O)Nc3cccc(C(F)(F)F)c3)c1)nn2Cc1ccccc1` [BB6, 1-(3-((4-amino-1-benzyl-1H-pyrazolo[3,4-d]pyrimidin-3-yl)methyl)phenyl)-3-(3-(trifluoromethyl)phenyl)urea]: the concentration for half-maximal inhibition (IC50) on T315A Abl was below 1 µM; against T338G Src (Table 1a), 1 to 5 µM; on c-Src (setting [1]), 1 to 5 µM.
Turning to `Nc1ncnc2c1c(Cc1cccc(NC(=O)c3cccc(C(F)(F)F)c3)c1)nn2C1CCCC1` [BB9], the half-inhibitory concentration (IC50) on T315A Abl was 1 to 5 µM; against T338G Src (Table 1a), below 1 µM; at c-Src (setting [1]), below 1 µM.
For `Nc1ncnc2c1c(Cc1cccc(NC(=O)c3cccc(C(F)(F)F)c3)c1)nn2CC1CC1` [BB13], the results for the half-maximal inhibitory concentration (IC50) on T315A Abl, against T338G Src (Table 1a) and on c-Src (setting [1]) were below 1 µM, below 1 µM and above 5 µM, respectively.
For `Nc1ncnc2c1c(Cc1cccc(NC(=O)Nc3cccc(C(F)(F)F)c3)c1)nn2CC1CC1` [BB14], the IC50 at T315A Abl, against T338G Src (Table 1a) and on c-Src (setting [1]) was below 1 µM in each case.
